Source: paper PMC9636434, “Discovery of small molecule agonists of the Relaxin Family Peptide Receptor 2” (Communications Biology, 2022)
“And” between values parts separate entries of the source, which are not always exact repeats. Equal entries are not always repeated. Where two headings read alike, the source gives them in different places.

Columns and labels:
mouse RXFP1 = target: T1, mouse RXFP1 (Mus musculus, UniProt Q6R6I7); assay: HTRF cAMP counter-screen in HEK293T cells expressing mouse RXFP1; assay type: cell-based; conditions: for % Eff (cAMP): mouse RXFP1, experiments (1)-(3)
T1 construct: FLAG (N); expressed in transfected cells
T1 sequence (Q6R6I7 1-758): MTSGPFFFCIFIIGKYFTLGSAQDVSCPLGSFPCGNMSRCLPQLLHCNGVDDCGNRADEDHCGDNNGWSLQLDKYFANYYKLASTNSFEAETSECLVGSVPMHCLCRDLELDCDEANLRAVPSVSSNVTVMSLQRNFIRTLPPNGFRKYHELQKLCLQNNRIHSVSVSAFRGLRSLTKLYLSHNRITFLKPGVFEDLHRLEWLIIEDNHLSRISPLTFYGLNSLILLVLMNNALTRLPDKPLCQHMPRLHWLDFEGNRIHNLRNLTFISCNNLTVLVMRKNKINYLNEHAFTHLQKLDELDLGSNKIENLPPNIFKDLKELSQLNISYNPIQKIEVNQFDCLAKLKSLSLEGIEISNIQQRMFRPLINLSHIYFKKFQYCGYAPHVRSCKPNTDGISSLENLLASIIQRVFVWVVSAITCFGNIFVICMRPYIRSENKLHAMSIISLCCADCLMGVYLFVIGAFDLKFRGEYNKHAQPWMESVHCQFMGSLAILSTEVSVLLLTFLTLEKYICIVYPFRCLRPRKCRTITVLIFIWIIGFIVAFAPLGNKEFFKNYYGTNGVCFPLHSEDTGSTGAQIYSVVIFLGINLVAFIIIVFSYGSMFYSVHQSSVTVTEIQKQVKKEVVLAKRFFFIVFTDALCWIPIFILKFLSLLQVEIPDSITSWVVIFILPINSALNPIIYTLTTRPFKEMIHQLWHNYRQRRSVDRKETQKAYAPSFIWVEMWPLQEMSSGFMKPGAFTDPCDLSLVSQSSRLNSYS
Description: The HTRF Gs dynamic cAMP assay kit (CisBio, Bedford, MA) was used to measure intracellular cAMP accumulation in HEK293T cells (ATCC, Manassas, VA)[56]. […] The cell stock was verified mycoplasma free and authenticated by ATCC. Transient transfection was accomplished by treating cells in a 6-well plate with a mixture of 2 μg plasmid and 6 μL Lipofectamine 2000 (Invitrogen, Waltham, MA) per manufacturer’s protocol and incubating overnight. For cAMP measurement in 96-well format, HEK293T cells stably transfected with human RXFP2 (HEK-RXFP2), human RXFP1 (HEK-RXFP1), mouse Rxfp1 (HEK-Rxfp1) or transiently transfected with human RXFP1-RXFP2 chimeric receptors were seeded between 7500 and 30,000 cells per well, depending on cell line responsiveness, in serum-free DMEM medium and incubated overnight at 37 °C, 5% CO2. After 18 h, cells were treated with a titration of compound, 2 μM forskolin, or DMSO vehicle. Control wells were also treated with a titration of INSL3 (Phoenix Pharmaceuticals, Burlingame, CA) or human recombinant relaxin 2 (Peprotech, Cranbury, NJ). For the RXFP2 antagonist experiment, cells were co-treated with 0.28 μM compound or 30 nM INSL3 and a titration of the INSL3 B dimer antagonist[38],[39]. For the INSL3 allosteric modulation experiment, cells were co-treated with 0.025, 0.0025, or 0.00025 μM of compound and a titration of INSL3. Cells were incubated for 1 h at 37 °C, 5% CO2, and then kit cAMP-d2 and anti-cAMP antibody were added per manufacturer protocol. Plates were incubated for 1 h at room temperature and the signal was read on a CLARIOstar plate reader (BMG Labtech, Ortenberg, Germany) at 665 and 620 nm emission wavelengths. […]
receptors. HTRF cAMP counter-screen of RXFP2 agonists in HEK293T cells expressing a human RXFP1 and b mouse RXFP1. Relaxin 2 was used as positive control for RXFP1 receptor activation. Results are expressed as mean ± SEM of 3

FPR1 = FPR1 (Homo sapiens, UniProt P21462); assay: PRESTO-Tango β-arrestin recruitment, FPR1; assay type: cell-based; conditions: 10 µM compound; basal level of detection 3-fold RLU
[1] = Pharmacokinetic study, single 30 mg/kg IP dose, plasma, liver and bone; assay type: in vivo, mouse; parameters: levels in plasma, liver, and bone: scale not given here; conditions: for Bone concentration / Liver concentration / Plasma concentration / concentration at 2 h / concentration at 12 h / concentration at 0.083 h / concentration at 0.25 h / concentration at 1 h: IP
Description: The concentration of compound in plasma, liver, and long bones was detected using liquid chromatography tandem mass spectrometry (LC-MS/MS). Samples were collected after a single intraperitoneal (IP) administration at 30 mg/kg, a single intravenous (IV) administration at 3 mg/kg, a single oral (PO) administration at 10 mg/kg, and a daily PO administration for 3 consecutive days at 10 mg/kg. The compound was formulated in 75% PEG300 + 25% of 40% aq. HPBCD for IV and PO administration and in 60% Phosal + 40% PEG300 for IP administration. All tissue samples were homogenized in water at a tissue weight to water volume ratio 1:3.
single dose IP administration. a Plasma, b liver and c bone profiles in female mice.
The actual concentration (ng/g) is the detected value (ng/mL) multiplied by 4. Drug
vehicle is 60% Phosal : 40% PEG300. 3 mice were used per time point. Results are
expressed as the mean ± SEM.

[2] = tested on: trabecular bone of lumbar vertebrae; assay: Micro-CT of trabecular bone in L3 vertebral body after 8-week oral treatment; assay type: in vivo, mouse; conditions: 10 mg/kg PO 3 times per week, 8 weeks, individual mice
[3] = Time 0.083 h, individual values (1)-(3)
[4] = Time 0.25 h, individual values (1)-(3)
[5] = Time 0.5 h, individual values (1)-(3)
[6] = Time 1 h, individual values (1)-(3)
[7] = Time 2 h, individual values (1)-(3)
[8] = Time 4 h, individual values (1)-(3)
[9] = Time 8 h, individual values (1)-(3)
[10] = Time 12 h, individual values (1)-(3)
[11] = single 30 mg/kg IP, female mice

Chain of FPR1 (P21462 whole entry): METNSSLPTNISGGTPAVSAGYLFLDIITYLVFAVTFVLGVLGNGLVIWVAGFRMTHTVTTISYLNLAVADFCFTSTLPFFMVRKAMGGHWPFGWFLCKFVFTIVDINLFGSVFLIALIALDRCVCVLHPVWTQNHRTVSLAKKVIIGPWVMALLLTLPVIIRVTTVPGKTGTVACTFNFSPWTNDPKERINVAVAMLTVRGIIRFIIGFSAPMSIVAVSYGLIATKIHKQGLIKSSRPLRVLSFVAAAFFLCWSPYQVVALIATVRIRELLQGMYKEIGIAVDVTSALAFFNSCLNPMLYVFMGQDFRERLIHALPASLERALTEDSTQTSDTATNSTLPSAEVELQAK

O=C1Nc2ccc(-c3cc(C(F)(F)F)cc(C(F)(F)F)c3)cc2C(=O)N2CCN(C(=O)COc3ccc(OC(F)(F)F)cc3I)C[C@@H]12 [compound 6641]
activation of mouse RXFP1 receptor (mouse RXFP1; HTRF cAMP): do not activate
% Eff (cAMP) (mouse RXFP1; Log [M] -4.60): -2.207% and -2.077% and -4.472%
% Eff (cAMP) (mouse RXFP1; Log [M] -5.60): -1.251% and -0.3652% and -2.403%
% Eff (cAMP) (mouse RXFP1; Log [M] -6.60): -1.454% and 0.6194% and -2.041%
% Eff (cAMP) (mouse RXFP1; Log [M] -7.60): -0.3802% and -0.7758% and -2.5668%
β-arrestin recruitment, FPR1 (mean ± SEM) (FPR1): 3.11 ± 0.29 fold RLU
Bone concentration [1, 3]: 307 ng/g and 205 ng/g and 624 ng/g
Liver concentration [1, 3]: 1132 ng/g and 1016 ng/g
Plasma concentration [1, 3]: 42.7 ng/mL and 44.4 ng/mL
Bone concentration [1, 4]: 618 ng/g and 42.7 ng/g and 69 ng/g
Liver concentration [1, 4]: 1852 ng/g and 1212 ng/g
Plasma concentration [1, 4]: 135 ng/mL and 133 ng/mL
Bone concentration [1, 5]: 79.8 ng/g and 96 ng/g and 167 ng/g
Liver concentration [1, 5]: 2324 ng/g and 2784 ng/g
Plasma concentration [1, 5]: 259 ng/mL and 440 ng/mL
Bone concentration [1, 6]: 204 ng/g and 273 ng/g and 532 ng/g
Liver concentration [1, 6]: 4720 ng/g and 3880 ng/g
Plasma concentration [1, 6]: 507 ng/mL and 673 ng/mL
Bone concentration [1, 7]: 346 ng/g and 472 ng/g
Liver concentration [1, 7]: 10000 ng/g and 4520 ng/g and 5600 ng/g
Plasma concentration [1, 7]: 819 ng/mL and 1140 ng/mL
Bone concentration [1, 8]: 708 ng/g and 1566 ng/g and 1740 ng/g
Liver concentration [1, 8]: 15760 ng/g and 16960 ng/g
Plasma concentration [1, 8]: 2340 ng/mL and 4780 ng/mL and 5300 ng/mL
Bone concentration [1, 9]: 3162 ng/g and 948 ng/g and 3258 ng/g
Liver concentration [1, 9]: 19080 ng/g and 9320 ng/g and 24920 ng/g
Plasma concentration [1, 9]: 3040 ng/mL and 3010 ng/mL
Bone concentration [1, 10]: 1716 ng/g and 1458 ng/g
Liver concentration [1, 10]: 18480 ng/g and 15600 ng/g
Plasma concentration [1, 10]: 3930 ng/mL and 2630 ng/mL
concentration at 2 h ([1]; female, C57BL/6 J, mouse, bone, ip, 30 mg/kg, Time 2 h, individual values (1)-(3), read-out: Bone concentration): 492 ng/g
concentration at 12 h ([1]; female, C57BL/6J, mouse, bone, ip, 30 mg/kg, Time 12 h, individual values (1)-(3), read-out: Bone concentration): 2830 ng/g
concentration at 0.083 h ([1]; female, C57BL/6J, mouse, liver, ip, 30 mg/kg, Time 0.083 h, individual values (1)-(3), read-out: Liver concentration): 1060 ng/g
concentration at 0.25 h ([1]; female, C57BL/6J, mouse, liver, ip, 30 mg/kg, Time 0.25 h, individual values (1)-(3), read-out: Liver concentration): 1800 ng/g
concentration at 1 h ([1]; female, C57BL/6J, mouse, liver, ip, 30 mg/kg, Time 1 h, individual values (1)-(3), read-out: Liver concentration): 4920 ng/g
concentration at 12 h ([1]; female, C57BL/6J, mouse, liver, ip, 30 mg/kg, Time 12 h, individual values (1)-(3), read-out: Liver concentration): 13600 ng/g
concentration at 0.5 h ([1]; female, C57BL/6J, mouse, liver, ip, 30 mg/kg, Time 0.5 h, individual values (1)-(3)): 3040 ng/g
concentration at 4 h ([1]; female, C57BL/6J, mouse, liver, ip, 30 mg/kg, Time 4 h, individual values (1)-(3)): 11000 ng/g
concentration at 0.083 h ([1]; female, C57BL/6J, mouse, plasma, ip, 30 mg/kg, Time 0.083 h, individual values (1)-(3), read-out: Plasma concentration): 60.9 ng/mL
concentration at 0.25 h ([1]; female, C57BL/6J, mouse, plasma, ip, 30 mg/kg, Time 0.25 h, individual values (1)-(3), read-out: Plasma concentration): 132 ng/mL
concentration at 1 h ([1]; female, C57BL/6J, mouse, plasma, ip, 30 mg/kg, Time 1 h, individual values (1)-(3), read-out: Plasma concentration): 627 ng/mL
concentration at 2 h ([1]; female, C57BL/6J, mouse, plasma, ip, 30 mg/kg, Time 2 h, individual values (1)-(3), read-out: Plasma concentration): 1160 ng/mL
concentration at 12 h ([1]; female, C57BL/6J, mouse, plasma, ip, 30 mg/kg, Time 12 h, individual values (1)-(3), read-out: Plasma concentration): 2750 ng/mL
concentration at 8 h ([1]; female, C57BL/6J, mouse, plasma, ip, 30 mg/kg, Time 8 h, individual values (1)-(3)): 2190 ng/mL
duration of stable levels in plasma, liver, and bone [1, 11]: at least 12 h
levels in plasma, liver, and bone [1, 11]: single/double digit
BV/TV (%) [2]: trend toward increased and 21.83% and 22.07% and 25.65% and 21.31% and 23.44% and 26.86% and 22.32% and 23.17% and 21.16% and 25.39% and 23.83% and 22.19% and 23.69% and 23.39% and 21.11%
Conn.D [2]: No changes and 105.367 1/mm^3 and 104.207 1/mm^3 and 139.801 1/mm^3 and 114.117 1/mm^3 and 100.266 1/mm^3 and 110.113 1/mm^3 and 116.566 1/mm^3 and 102.739 1/mm^3 and 105.531 1/mm^3 and 114.364 1/mm^3 and 111.763 1/mm^3 and 100.184 1/mm^3 and 109.218 1/mm^3 and 125.466 1/mm^3 and 120.228 1/mm^3
Mat.D [2]: No changes and 789.633 VOI-mg HA/ccm and 806.041 VOI-mg HA/ccm and 814.578 VOI-mg HA/ccm and 814.711 VOI-mg HA/ccm and 826.05 VOI-mg HA/ccm and 764.488 VOI-mg HA/ccm and 771.958 VOI-mg HA/ccm and 779.095 VOI-mg HA/ccm and 769.29 VOI-mg HA/ccm and 795.903 VOI-mg HA/ccm and 795.302 VOI-mg HA/ccm and 809.309 VOI-mg HA/ccm and 793.168 VOI-mg HA/ccm and 804.707 VOI-mg HA/ccm and 800.171 VOI-mg HA/ccm
Tb.N [2]: significant increase and 4.0038 mm-1 and 4.0307 mm-1 and 4.3607 mm-1 and 4.399 mm-1 and 4.0225 mm-1 and 4.1566 mm-1 and 4.1337 mm-1 and 4.2031 mm-1 and 4.3359 mm-1 and 3.9986 mm-1 and 4.1625 mm-1 and 3.9653 mm-1 and 4.2022 mm-1 and 4.1463 mm-1 and 4.168 mm-1
Tb.Sp [2]: decreased and 0.2416 mm and 0.2439 mm and 0.2173 mm and 0.2168 mm and 0.234 mm and 0.2335 mm and 0.2409 mm and 0.2383 mm and 0.2244 mm and 0.2446 mm and 0.2447 mm and 0.2276 mm and 0.235 mm and 0.2349 mm
Tb.Th [2]: significant increase and 0.0544 mm and 0.0558 mm and 0.0561 mm and 0.0524 mm and 0.0567 mm and 0.0611 mm and 0.0571 mm and 0.0582 mm and 0.0525 mm and 0.0589 mm and 0.057 mm and 0.056 mm and 0.0578 mm and 0.0547 mm and 0.0543 mm
